The target of this assay is T1, a4b7 integrin interaction with MadCAM-1 (Homo sapiens, UniProt P13612+P26010).
T1 construct: capture of a4b7 integrin expressing cells, RPMI8866; endogenous in cells; host or cells: RPMI8866
T1 sequence (P13612 34-1032): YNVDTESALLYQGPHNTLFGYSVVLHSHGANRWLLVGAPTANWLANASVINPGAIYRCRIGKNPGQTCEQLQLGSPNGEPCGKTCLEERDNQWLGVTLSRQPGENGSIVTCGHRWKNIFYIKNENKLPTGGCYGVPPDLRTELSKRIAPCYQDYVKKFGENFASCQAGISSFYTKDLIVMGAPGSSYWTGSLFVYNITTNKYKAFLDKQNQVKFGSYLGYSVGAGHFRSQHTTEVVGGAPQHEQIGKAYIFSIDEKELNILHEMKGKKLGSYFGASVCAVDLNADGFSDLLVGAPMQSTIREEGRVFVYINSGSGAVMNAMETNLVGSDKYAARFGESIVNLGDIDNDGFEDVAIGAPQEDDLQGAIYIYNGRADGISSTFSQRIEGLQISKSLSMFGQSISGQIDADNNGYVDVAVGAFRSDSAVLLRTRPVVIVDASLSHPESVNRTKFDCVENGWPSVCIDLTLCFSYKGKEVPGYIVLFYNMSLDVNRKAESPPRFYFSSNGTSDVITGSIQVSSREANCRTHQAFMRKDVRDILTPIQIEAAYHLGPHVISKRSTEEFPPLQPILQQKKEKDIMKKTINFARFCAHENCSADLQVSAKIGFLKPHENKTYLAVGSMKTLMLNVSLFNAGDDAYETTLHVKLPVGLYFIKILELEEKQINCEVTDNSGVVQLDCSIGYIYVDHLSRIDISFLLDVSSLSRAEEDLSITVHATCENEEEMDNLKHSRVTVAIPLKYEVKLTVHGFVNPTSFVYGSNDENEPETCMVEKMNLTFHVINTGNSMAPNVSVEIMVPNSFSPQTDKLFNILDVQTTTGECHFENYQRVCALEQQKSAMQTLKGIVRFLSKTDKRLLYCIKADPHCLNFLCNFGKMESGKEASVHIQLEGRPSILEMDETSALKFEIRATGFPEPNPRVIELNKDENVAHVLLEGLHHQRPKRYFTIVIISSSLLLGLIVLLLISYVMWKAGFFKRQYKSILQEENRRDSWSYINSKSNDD
T1 sequence (P26010 20-798): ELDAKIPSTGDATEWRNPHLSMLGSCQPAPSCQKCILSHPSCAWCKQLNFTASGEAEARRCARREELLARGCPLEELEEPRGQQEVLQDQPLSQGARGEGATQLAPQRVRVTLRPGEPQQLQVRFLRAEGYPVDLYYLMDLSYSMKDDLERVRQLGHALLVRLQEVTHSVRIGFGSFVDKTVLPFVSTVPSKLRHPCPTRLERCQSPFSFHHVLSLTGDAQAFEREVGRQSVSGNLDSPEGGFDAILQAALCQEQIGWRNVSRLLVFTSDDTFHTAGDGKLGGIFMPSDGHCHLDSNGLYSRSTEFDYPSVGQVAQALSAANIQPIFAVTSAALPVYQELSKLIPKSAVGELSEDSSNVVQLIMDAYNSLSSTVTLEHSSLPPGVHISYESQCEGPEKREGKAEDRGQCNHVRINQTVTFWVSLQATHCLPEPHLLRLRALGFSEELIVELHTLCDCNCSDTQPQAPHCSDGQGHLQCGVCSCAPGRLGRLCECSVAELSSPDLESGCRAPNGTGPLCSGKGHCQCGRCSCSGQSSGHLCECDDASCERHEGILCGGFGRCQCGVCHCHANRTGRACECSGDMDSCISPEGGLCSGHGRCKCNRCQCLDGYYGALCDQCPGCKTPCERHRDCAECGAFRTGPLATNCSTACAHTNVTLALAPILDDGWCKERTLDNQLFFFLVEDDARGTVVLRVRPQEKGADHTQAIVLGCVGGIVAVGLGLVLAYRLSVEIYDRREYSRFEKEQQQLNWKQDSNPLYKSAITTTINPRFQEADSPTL
In words: a4b7 Cell Capture Assay (RPMI8866 cells on MAdCAM-1 Fc coated plates). As to conditions: 50% human serum, 1 mM MgCl2, 1 hour incubation, CellTiter-Glo luminescence, read-out: a4B7 cell capture assay RMPI8866-MadCAM EC50. The format is cell-based. As for the experimental part:
The potency of inhibitors in preventing a4b7 integrin interaction with MadCAM-1 was measured by monitoring the capture of a4b7 integrin expressing cells, RPMI8866, on recombinant human MAdCAM-1 Fc chimera protein-coated plates. The protein was a fusion between human MAdCAM-1 (Met1-Gln333, Accession #AAY82472) and human IgG1 (Pro100-Lys330)] (R&D Systems, Catalog #6056-MC). 96-well plates (Thermofisher, Catalog #136102) were coated with the recombinant protein by dispensing 100 μL (1.0 μg/mL) per well. After a quick spin to settle down the coating solution using a plate centrifuge, plates were incubated overnight at 4° C. in a moisture chamber. On Day 2, the plates were washed with PBS using a Bluecatbio Blue®Washer (GentleSpin wash, 3 cycles, pressure=1, volume 150 uL). Blocking solution (1.0% BSA in PBS, Sigma, Catalog #A7979) was then added at 200 uL/well, and the plates were quickly spun to settle down blocking buffer and incubated in cell culture incubator at 37° C. and 5% CO2 for 1 hour. The plates were then washed with 0.1% BSA in PBS using a Bluecatbio Blue®Washer (GentleSpin wash, 3 cycles, pressure=1, volume 150 uL). RPMI8866 cells suspended in assay medium (1 mM MgCl2 25 mM HEPES and 50% human serum, Sigma, Catalog #H4522) at a density of 1.0×10^6 cells/mL were added at 100 uL/well. Each compound evaluated was prepared as a DMSO stock solution. Test compounds were evaluated with a 9-point serial dilution curve (1000, 333.3, 111.1, 55.6, 27.8, 13.9, 6.9, 2.3, and 0.77 nM)) and were added to the plates using a Tecan D.30e Digita dispenser, the dispensed stock is 100 nL and the final DMSO concentration is 0.1%. Potent compounds were re-evaluated at a new 9-point serial dilution curve (100, 33.3, 11.1, 5.6, 2.8, 1.4, 0.69, 0.23, and 0.08 nM). Each titration curves were performed in triplicate on the same plate, and most of compounds were retested in different dates multiple times. The plates were shaken at 300 rpm on orbital plate shaker for 3 minutes to mix the cells and compounds, quickly spun to settle the cells and solution, and incubated in cell culture incubator at 37° C. and 5% CO2. After 1 hour incubation, the unbound cells were washed away with RPMI1640 medium supplemented with 1 mM MgCl2 and 1% BSA) (wash buffer) using a Bluecatbio Blue®Washer (MagbeadsSpin wash, 1 cycle, pressure 1, volume=150 uL). After wash buffer removal, A mixture of wash buffer/CellTiter-Glo® Reagent (Pormega, catalog #G7573) at 1:1 (V/V) was added at volume of 100 uL to each well. The plates were placed in a chamber at 25° C. and incubated for 30 minutes. Luminescence was recorded using a Envision plate reader 2105 according to CellTiter-Glo protocol.
The mean luminescence signals from negative control wells without MadCAM-1 coating and compound treatment (cells only) was defined as 100% binding inhibition, and the mean luminescence signals from positive control wells with MadCAM-1 coating but without compound treatment (MadCAM-1 and cells only) was defined as 0% binding inhibition. The luminescence signals from other compound treated wells were normalized in percentage scale accordingly. The normalized mean % inhibition data were plotted against logarithmic compound concentration in nanomolar and were fitted with 4-parameter logistic model to obtain IC50 for each compound.
Background: In ATP-based viability assays light output follows the ATP content of the culture.
In the case of `Cc1cc2cc(c1F)[C@H](CC(=O)O)NC(=O)[C@@H](n1cc(CCN3CC(F)C3)c(C(F)(F)F)cc1=O)c1cc(ccc1F)Oc1cc(F)cc(C)c1-2` (relative stereo) [Example 26, [(14R*,17S)-5,12,19-trifluoro-14-{5-[2-(3-fluoroazetidin-1-yl)ethyl]-2-oxo-4-(trifluoromethyl)pyridin-1-yl}-3,20-dimethyl-15-oxo-8-oxa-16-azatetracyclo[16.3.1.1^{9,13}.0^{2,7}]tricosa-1(22),2(7),3,5,9,11,13(23),18,20-nonaen-17-yl]acetic acid], the EC50 turned out to be 1.3 nM.
The result for `Cc1cc(C)c2c(c1)Oc1ccc(F)c(c1)[C@H](n1cc(CCN3CC(F)C3)c(C(F)(F)F)cc1=O)C(=O)N[C@@H](CC(=O)O)c1cc-2cc(C)c1F` (relative stereo) [Example 27, [(14R*,17S)-12,19-difluoro-14-{5-[2-(3-fluoroazetidin-1-yl)ethyl]-2-oxo-4-(trifluoromethyl)pyridin-1-yl}-3,5,20-trimethyl-15-oxo-8-oxa-16-azatetracyclo[16.3.1.1^{9,13}.0^{2,7}]tricosa-1(22),2(7),3,5,9,11,13(23),18,20-nonaen-17-yl]acetic acid] reads 3.7 nM; that for `Cc1cc2cc(c1F)[C@H](CC(=O)O)NC(=O)[C@@H](n1cc(CCN3CC(F)C3)c(C(F)(F)F)cc1=O)c1cc(ccc1F)Oc1cccc(C(F)(F)F)c1-2` (relative stereo) [Example 28, [(14R*,17S)-12,19-difluoro-14-{5-[2-(3-fluoroazetidin-1-yl)ethyl]-2-oxo-4-(trifluoromethyl)pyridin-1-yl}-20-methyl-15-oxo-3-(trifluoromethyl)-8-oxa-16-azatetracyclo[16.3.1.1^{9,13}.0^{2,7}]tricosa-1(22),2(7),3,5,9,11,13(23),18,20-nonaen-17-yl]acetic acid], 19 nM.
For the compound `Cc1cc2cc(c1F)[C@H](CC(=O)O)NC(=O)[C@@H](n1cc(CCN(C)C)c(C(F)(F)F)cc1=O)c1cc(ccc1F)Oc1cccc(C)c1-2` (relative stereo) [Example 29, [(14R*,17S)-14-{5-[2-(dimethylamino)ethyl]-2-oxo-4-(trifluoromethyl)pyridin-1-yl}-12,19-difluoro-3,20-dimethyl-15-oxo-8-oxa-16-azatetracyclo[16.3.1.1^{9,13}.0^{2,7}]tricosa-1(22),2(7),3,5,9,11,13(23),18,20-nonaen-17-yl]acetic acid], the EC50 was 0.07 nM.
The value for `Cc1cc2cc(c1F)[C@H](CC(=O)O)NC(=O)[C@@H](n1cc(CCN3CC(F)C3)c(C(F)(F)F)cc1=O)c1cc(ccc1F)Oc1ccc(F)c(C)c1-2` (relative stereo) [Example 30, [(14R*,17S)-4,12,19-trifluoro-14-{5-[2-(3-fluoroazetidin-1-yl)ethyl]-2-oxo-4-(trifluoromethyl)pyridin-1-yl}-3,20-dimethyl-15-oxo-8-oxa-16-azatetracyclo[16.3.1.1^{9,13}.0^{2,7}]tricosa-1(22),2(7),3,5,9,11,13(23),18,20-nonaen-17-yl]acetic acid] was 2.6 nM; that for `Cc1cccc2c1-c1cc(F)c(F)c(c1)[C@H](CC(=O)O)NC(=O)[C@@H](n1cc(CCN3CC(F)C3)c(C(F)(F)F)cc1=O)c1cc(ccc1F)O2` (relative stereo) [Example 31, [(14R*,17S)-12,19,20-trifluoro-14-{5-[2-(3-fluoroazetidin-1-yl)ethyl]-2-oxo-4-(trifluoromethyl)pyridin-1-yl}-3-methyl-15-oxo-8-oxa-16-azatetracyclo[16.3.1.1^{9,13}.0^{2,7}]tricosa-1(22),2(7),3,5,9,11,13(23),18,20-nonaen-17-yl]acetic acid] was 1.9 nM; that for `Cc1ccc2c(c1C)-c1cc(C)c(F)c(c1)[C@H](CC(=O)O)NC(=O)[C@@H](n1cc(CCN3CC(F)C3)c(C(F)(F)F)cc1=O)c1cc(ccc1F)O2` (relative stereo) [Example 33, [(14R*,17S)-12,19-difluoro-14-{5-[2-(3-fluoroazetidin-1-yl)ethyl]-2-oxo-4-(trifluoromethyl)pyridin-1-yl}-3,4,20-trimethyl-15-oxo-8-oxa-16-azatetracyclo[16.3.1.1^{9,13}.0^{2,7}]tricosa-1(22),2(7),3,5,9,11,13(23),18,20-nonaen-17-yl]acetic acid] was 50 nM.
The value for `Cc1cc2cc(c1F)[C@H](CC(=O)O)NC(=O)[C@@H](n1cc(CCN3CC(F)C3)c(C(F)(F)F)cc1=O)c1cc(Cl)cc(c1)Oc1ccc(F)c(C)c1-2` (relative stereo) [Example 34, [(14R*,17S)-11-chloro-4,19-difluoro-14-{5-[2-(3-fluoroazetidin-1-yl)ethyl]-2-oxo-4-(trifluoromethyl)pyridin-1-yl}-3,20-dimethyl-15-oxo-8-oxa-16-azatetracyclo[16.3.1.1^{9,13}.0^{2,7}]tricosa-1(22),2(7),3,5,9,11,13(23),18,20-nonaen-17-yl]acetic acid] was 23 nM.

Usually EC50 stands for the concentration giving half of the maximal effect.

Source of the values: patent US20240279214A1, “ALPHA4 BETA7 INEGRIN ANTAGONISTS AND USES THEREOF” (XinThera, Inc., priority 2022, published 2024).
